This is an account of results in PubChem BioAssay AID330 (DTP/NCI, 2004).

In the assay the test system is P388 leukemia ip, CD2F1 mice, survival T/C. The assay can be described thus: NCI In Vivo Anticancer Drug Screen. Data for tumor model P388 Leukemia (intraperitoneal) in CD2F1 (CDF1) mice. As to conditions: endpoint: median survival time, higher = longer survival. In a few lines: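 Mice carrying the transplanted tumor received test compound or vehicle. Survival was recorded in each group, and the value is the treated-group measurement divided by that of the vehicle-treated control group.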

Setting [1] is: dose: 50.0 mg/kg/injection, schedule: Q01DX005 (ip), vehicle: Klucel (hydroxypropylcellulose) (HPC).
The mark [2] stands for this setting: dose: 100.0 mg/kg/injection, schedule: Q01DX009 (ip), vehicle: saline with Tween-80.
Where [3] appears, read: dose: 200.0 mg/kg/injection, schedule: Q01DX009 (ip), vehicle: saline with Tween-80.
[4] abbreviates: dose: 50.0 mg/kg/injection, schedule: Q01DX009 (ip), vehicle: saline.
The mark [5] stands for this setting: dose: 100.0 mg/kg/injection, schedule: Q01DX009 (ip), vehicle: saline.
The mark [6] stands for this setting: dose: 200.0 mg/kg/injection, schedule: Q01DX009 (ip), vehicle: saline.
[7] abbreviates: dose: 100.0 mg/kg/injection, schedule: Q04DX003 (ip), vehicle: saline with Tween-80.
Where [8] appears, read: dose: 200.0 mg/kg/injection, schedule: Q04DX003 (ip), vehicle: saline with Tween-80.

“And” between values parts separate entries of the source, which are not always exact repeats. Identical values can stand only once. Inconclusive results and toxic doses are left out.

Turning to `CC(=O)OC1CC2CCC3C(CCC4(C)C3CC([N+]3(C)CCCCC3)C4OC(C)=O)C2(C)CC1[N+]1(C)CCCCC1` (configuration not stated), the T/C is 103 % of control (dose: 12.5 micrograms/kg/injection, schedule: Q01DX009 (ip), vehicle: saline); 100 % of control (dose: 25.0 micrograms/kg/injection, schedule: Q01DX009 (ip), vehicle: saline); 103 % of control (dose: 50.0 micrograms/kg/injection, schedule: Q01DX009 (ip), vehicle: saline).
Turning to `CCN(CC)CCOc1ccc(C2c3cc(OC)ccc3CC2Cc2cccc(Cl)c2)cc1` (configuration not stated), the T/C by setting is: (dose: 6.25 mg/kg/injection, schedule: Q01DX005 (ip), vehicle: Klucel (hydroxypropylcellulose) (HPC)) 98 % of control; (dose: 12.5 mg/kg/injection, schedule: Q01DX005 (ip), vehicle: Klucel (hydroxypropylcellulose) (HPC)) 95 % of control; (dose: 25.0 mg/kg/injection, schedule: Q01DX005 (ip), vehicle: Klucel (hydroxypropylcellulose) (HPC)) 96 % of control; under setting [1], 93 % of control.
Take `Oc1c(Br)cc(Br)cc1C1CCCCC1`: the T/C was 110 % of control (dose: 25.0 mg/kg/injection, schedule: Q01DX009 (ip), vehicle: saline with Tween-80); 119 % of control (dose: 50.0 mg/kg/injection, schedule: Q01DX009 (ip), vehicle: saline with Tween-80); 107 % of control under setting [2]; 113 % of control under setting [3].
`Cn1ccn(C)c1=S`: the T/C reads like this: under setting [4], 107 % of control; under setting [5], 97 % of control; under setting [6], 101 % of control.
Consider `CCOC(=N)c1ccc(C(=N)OCC)cc1`, for which the T/C (dose: 60.0 mg/kg/injection, schedule: Q01DX005 (ip), vehicle: saline) is 97 % of control; the T/C (dose: 120.0 mg/kg/injection, schedule: Q01DX005 (ip), vehicle: saline) is 100 % of control; the T/C (dose: 240.0 mg/kg/injection, schedule: Q01DX005 (ip), vehicle: saline) was 104 % of control.
On to `CC(CCC1(O)OC2CC3C4CC=C5CC(OC6OC(CO)C(OC7OC(C)C(O)C(O)C7O)C(O)C6O)CCC5(C)C4CCC3(C)C2C1(C)C)COC1OC(C)C(O)C(O)C1O` (configuration not stated), for which the T/C reads like this: (dose: 2.5 mg/kg/injection, schedule: Q01DX005 (ip), vehicle: Klucel (hydroxypropylcellulose) (HPC)) 100 % of control; (dose: 5.0 mg/kg/injection, schedule: Q01DX005 (ip), vehicle: Klucel (hydroxypropylcellulose) (HPC)) 88 % of control.
For `O=S1(=O)OC2(c3ccccc31)c1cc(Br)c(O)c(O)c1Oc1c2cc(Br)c(O)c1O`, the T/C reads like this: (dose: 12.5 mg/kg/injection, schedule: Q01DX009 (ip), vehicle: saline) 105 % of control; (dose: 25.0 mg/kg/injection, schedule: Q01DX009 (ip), vehicle: saline) 103 % of control; under setting [4], 88 % of control.
Regarding `COCc1nnc2c(N)nccn12`, the T/C reads like this: (dose: 100.0 mg/kg/injection, schedule: Q01DX001 (ip), vehicle: Klucel (hydroxypropylcellulose) (HPC)) 99 % of control; (dose: 200.0 mg/kg/injection, schedule: Q01DX001 (ip), vehicle: Klucel (hydroxypropylcellulose) (HPC)) 93 % of control.
For `NC(=S)Nc1ccc(Cc2ccc(NC(N)=S)cc2)cc1`, the T/C is, setting by setting: (dose: 25.0 mg/kg/injection, schedule: Q04DX003 (ip), vehicle: saline with Tween-80) 101 % of control; (dose: 50.0 mg/kg/injection, schedule: Q04DX003 (ip), vehicle: saline with Tween-80) 101 % of control; under setting [7], 100 % of control; under setting [8], 99 % of control.
Regarding `Cc1cc2c(cc1C)NC1=C(N2)OC(c2c[nH]c3ccc(COc4ccccc4)cc23)C1=O` (configuration not stated), the T/C (dose: 60.0 mg/kg/injection, schedule: Q01DX005 (ip), vehicle: saline with Tween-80) is 92 % of control; the T/C (dose: 120.0 mg/kg/injection, schedule: Q01DX005 (ip), vehicle: saline with Tween-80) was 90 % of control; the T/C (dose: 240.0 mg/kg/injection, schedule: Q01DX005 (ip), vehicle: saline with Tween-80) was 92 % of control.
On to `C=CCN1C(SC)=NC(=O)C1(c1ccccc1)c1ccccc1`, for which the T/C reads like this: under setting [1], 100 % of control; (dose: 100.0 mg/kg/injection, schedule: Q01DX005 (ip), vehicle: Klucel (hydroxypropylcellulose) (HPC)) 104 % of control; (dose: 200.0 mg/kg/injection, schedule: Q01DX005 (ip), vehicle: Klucel (hydroxypropylcellulose) (HPC)) 102 % of control.
Regarding `CN1CCC2(CCNCC2)C1=O`, the T/C is 86 % of control under setting [4], 100 % of control under setting [5] and 95 % of control under setting [6].
Regarding `Cc1ccc(NC(=O)c2ccc(Cl)cc2Cl)cc1C`, the T/C was 95 % of control under setting [2]; 104 % of control under setting [3]; 100 % of control (dose: 400.0 mg/kg/injection, schedule: Q01DX009 (ip), vehicle: saline with Tween-80).
For `c1ccc2c[n+](CCCCCCCCCC[n+]3ccc4ccccc4c3)ccc2c1`, the T/C was 94 % of control (dose: 1.25 mg/kg/injection, schedule: Q01DX009 (ip), vehicle: saline); 101 % of control (dose: 2.5 mg/kg/injection, schedule: Q01DX009 (ip), vehicle: saline); 102 % of control (dose: 5.0 mg/kg/injection, schedule: Q01DX009 (ip), vehicle: saline).
With `Cl/N=C1/C=CC(Cl)=C/C1=N/Cl`, the T/C (dose: 25.0 mg/kg/injection, schedule: Q01DX005 (ip), vehicle: saline) was 100 % of control and 101 % of control; the T/C (dose: 50.0 mg/kg/injection, schedule: Q01DX005 (ip), vehicle: saline) was 101 % of control and 102 % of control and 115 % of control; the T/C (dose: 100.0 mg/kg/injection, schedule: Q01DX005 (ip), vehicle: saline) is 105 % of control and 106 % of control and 120 % of control; the T/C (dose: 200.0 mg/kg/injection, schedule: Q01DX005 (ip), vehicle: saline) was 98 % of control and 101 % of control and 110 % of control.
Turning to `COc1cc(C)c(C(CC(=O)O)CC(=O)N(CCCl)CCCl)cc1C(C)C` (configuration not stated), the T/C reads like this: (dose: 100.0 mg/kg/injection, schedule: Q01DX003 (ip), vehicle: saline) 102 % of control; (dose: 200.0 mg/kg/injection, schedule: Q01DX003 (ip), vehicle: saline) 100 % of control; (dose: 400.0 mg/kg/injection, schedule: Q01DX003 (ip), vehicle: saline) 100 % of control.
Take `CN=C(N)N/N=C(\c1ccccc1)c1ccc(Br)cc1`: the T/C (dose: 3.12 mg/kg/injection, schedule: Q04DX002 (ip), vehicle: saline with Tween-80) was 101 % of control; the T/C (dose: 6.25 mg/kg/injection, schedule: Q04DX002 (ip), vehicle: saline with Tween-80) is 108 % of control and 96 % of control.
For the compound `CC1CC[N-]C(C)C1.CN(C)C=O.[Cl][Pt][Cl]` (configuration not stated), the T/C (dose: 1.56 mg/kg/injection, schedule: Q01DX009 (ip), vehicle: saline with Tween-80) was 114 % of control and the T/C (dose: 3.13 mg/kg/injection, schedule: Q01DX009 (ip), vehicle: saline with Tween-80) is 124 % of control.
For the compound `COc1cccc(N=Nc2c(C)nn(C(=S)S)c2C)c1`, the T/C is, setting by setting: (dose: 50.0 mg/kg/injection, schedule: Q01DX005 (ip), vehicle: saline with Tween-80) 101 % of control; (dose: 100.0 mg/kg/injection, schedule: Q01DX005 (ip), vehicle: saline with Tween-80) 100 % of control; (dose: 200.0 mg/kg/injection, schedule: Q01DX005 (ip), vehicle: saline with Tween-80) 94 % of control.
In the case of `Cc1ccc(Cl)cc1NS(=O)(=O)c1ccc2ccccc2c1`, the T/C by setting is: under setting [7], 100 % of control; under setting [8], 109 % of control; (dose: 400.0 mg/kg/injection, schedule: Q04DX003 (ip), vehicle: saline with Tween-80) 104 % of control.
In the case of `Cc1ccc(NC2OC(CO)C(O)C2O)c([N+](=O)[O-])c1` (configuration not stated), the T/C runs as follows: (dose: 100.0 mg/kg/injection, schedule: Q01DX001 (ip), vehicle: saline) 108 % of control; (dose: 200.0 mg/kg/injection, schedule: Q01DX001 (ip), vehicle: saline) 97 % of control; (dose: 400.0 mg/kg/injection, schedule: Q01DX001 (ip), vehicle: saline) 99 % of control.
Regarding `OCc1ccc2c(c1)CCC2`, the T/C (dose: 50.0 mg/kg/injection, schedule: Q01DX009 (ip), vehicle: other) is 100 % of control.
For the compound `CCC(c1ccc(OC)cc1)C(NCC(=O)N/N=C1/C=C2CC[C@H]3[C@@H]4CC[C@H](O)[C@@]4(C)CC[C@@H]3[C@@]2(C)CC1)c1ccc(OC)cc1` (some centres not stated), the T/C is, setting by setting: (dose: 100.0 mg/kg/injection, schedule: Q01DX001 (ip), vehicle: saline with Tween-80) 100 % of control; (dose: 200.0 mg/kg/injection, schedule: Q01DX001 (ip), vehicle: saline with Tween-80) 110 % of control; (dose: 400.0 mg/kg/injection, schedule: Q01DX001 (ip), vehicle: saline with Tween-80) 107 % of control.
